Source: patent US20260256792A1, “TREATMENT OF CHRONIC SPONTANEOUS URTICARIA BY ADMINISTERING (R)-2-[3-[4-AMINO-3-(2-FLUORO-4-PHENOXY-PHENYL)PYRAZOLO[3,4-D]PYRIMIDIN-1-YL]PIPERIDINE-1-CARBONYL]-4-METHYL-4-[4-(OXETAN-3-YL)PIPERAZIN-1-YL]PENT-2-ENENITRILE” (priority 2023, published 2026)

System: moderate-to-severe chronic spontaneous urticaria (CSU)
Test: Phase 2 CSU study: urticaria activity score over 7 days (UAS7)
Assay type: in vivo, human
Set-up: key to UAS7 Median / UAS7 Change from baseline Median / UAS7 change from baseline, Q1 / UAS7 change from baseline, Q3 / UAS7 change from baseline, Max / UAS7 Change from baseline LS Mean (SE): UAS7 points; daily UAS score ranges 0–6 points/day, over 7 days
Description: The study comprises a 12 week, randomized, double-blind, placebo-controlled, multi-center, dose-ranging efficacy and safety phase, followed by a 40 week open label extension (OLE) phase (see FIG. 1). The study consists of three phases and an optional OLE phase. […] Clinically, CSU is characterized by the spontaneous and recurrent appearance of pruritic hives. The proposed primary endpoints were the UAS7 at Week 12 in EU and EU reference countries and the ISS7 in the US. Regardless of where a participant was from, all assessments were the same. The UAS7 score is a composite score containing both the HSS7 and the ISS7. This allowed a global assessment of the two key components of urticaria: hives and itch. […] The UAS is a validated PRO measure. […] The daily UAS scores range from 0 to 6 point/day. […] Patients were to complete the UAS using the e-diary. […] The following secondary endpoints were to be analyzed using the same approach as for the primary endpoint: • Change from baseline in UAS7 at Week 4 • Change from baseline in UAS7 at Week 12 (for US and US reference countries) • Change from baseline in ISS7 at Week 12 (except US and US reference countries) • Change from baseline in HSS7 at Week 12 The following responder secondary endpoints were to be analyzed using the Cochran-Mantel-Haenszel test adjusted by region: • Proportion of participants with UAS7<6 at Week 12 • Proportion of participants with UAS7=0 at Week 12 Participants who received selected prohibited medications and/or rescue medications were to be considered as non-responders for time points after the medication usage. For other participants, all available data including those collected during the off-treatment period were to be used to determine the responder/non-responder status. Missing data were to be considered as non-responders.

[1] = Week 3, 400 mg TID, Omalizumab-Naïve
[2] = Week 3, 400 mg TID, Prior Omalizumab Use
[3] = Week 3, 400 mg TID, omalizumab-naive participants
[4] = Week 4, 400 mg BID, ITT population
[5] = Week 4, 400 mg BID, Omalizumab-Naïve
[6] = Week 4, 400 mg BID, Prior Omalizumab Use
[7] = Week 4, 400 mg BID, omalizumab-naive participants
[8] = Week 4, 400 mg QPM, ITT population
[9] = Week 4, 400 mg QPM, Omalizumab-Naïve
[10] = Week 4, 400 mg QPM, Prior Omalizumab Use
[11] = Week 4, 400 mg QPM, omalizumab-naive participants
[12] = Week 4, 400 mg TID, ITT population
[13] = Week 4, 400 mg TID, Omalizumab-Naïve
[14] = Week 4, 400 mg TID, Prior Omalizumab Use
[15] = Week 4, 400 mg TID, omalizumab-naive participants
[16] = Week 5, 400 mg BID, ITT population
[17] = Week 5, 400 mg BID, Omalizumab-Naïve
[18] = Week 5, 400 mg BID, Prior Omalizumab Use
[19] = Week 5, 400 mg BID, omalizumab-naive participants
[20] = Week 5, 400 mg QPM, ITT population
[21] = Week 5, 400 mg QPM, Omalizumab-Naïve
[22] = Week 5, 400 mg QPM, Prior Omalizumab Use
[23] = Week 5, 400 mg QPM, omalizumab-naive participants
[24] = Week 5, 400 mg TID, ITT population
[25] = Week 5, 400 mg TID, Omalizumab-Naïve
[26] = Week 5, 400 mg TID, Prior Omalizumab Use
[27] = Week 5, 400 mg TID, omalizumab-naive participants

CC(C)(C=C(C#N)C(=O)N1CCC[C@@H](n2nc(-c3ccc(Oc4ccccc4)cc3F)c3c(N)ncnc32)C1)N1CCN(C2COC2)CC1 [rilzabrutinib, (R)-2-[3-[4-amino-3-(2-fluoro-4-phenoxy-phenyl)pyrazolo[3,4-d]pyrimidin-1-yl]piperidine-1-carbonyl]-4-methyl-4-[4-(oxetan-3-yl)piperazin-1-yl]pent-2-enenitrile]
UAS7 Percent change from baseline Mean (SD) [1]: −48.87 (33.07) %
UAS7 Percent change from baseline Median [1]: −48.08%
UAS7 Change from baseline Mean (SD) [2]: −24.14 (11.99)
UAS7 Change from baseline Median [2]: −24.50
UAS7 Median [2]: 7.67
UAS7 Percent change from baseline Mean (SD) [2]: −71.37 (19.75) %
UAS7 Percent change from baseline Median [2]: −64.58%
Non-responder, UAS7 reduction from baseline of 10 points or more [3]: 14 (40.0) n (%)
OR for rilzabrutinib vs. placebo, UAS7 reduction of 10 points or more [3]: 2.949
RRD (%) for rilzabrutinib vs. placebo, UAS7 reduction of 10 points or more [3]: 27.1 %
Responder, UAS7 reduction from baseline of 10 points or more [3]: 21 (60.0) n (%)
Non-responder, UAS7 reduction from baseline of 10 points or more [4]: 19 (46.3) n (%)
OR for rilzabrutinib vs. placebo, UAS7 reduction of 10 points or more [4]: 1.853
RRD (%) for rilzabrutinib vs. placebo, UAS7 reduction of 10 points or more [4]: 14.7 %
Responder, UAS7 reduction from baseline of 10 points or more [4]: 22 (53.7) n (%)
UAS7 Change from baseline Mean (SD) [5]: −13.49 (10.97)
UAS7 Change from baseline Median [5]: −11.00
UAS7 Mean (SD) [5]: 15.92 (11.71)
UAS7 Median [5]: 14.00
UAS7 Percent change from baseline Mean (SD) [5]: −46.55 (35.69) %
UAS7 Percent change from baseline Median [5]: −41.94%
UAS7 Change from baseline Mean (SD) [6]: −21.80 (16.62)
UAS7 Change from baseline Median [6]: −26.00
UAS7 Mean (SD) [6]: 13.60 (16.55)
UAS7 Median [6]: 3.00
UAS7 Percent change from baseline Mean (SD) [6]: −62.33 (45.90) %
UAS7 Percent change from baseline Median [6]: −91.43%
Non-responder, UAS7 reduction from baseline of 10 points or more [7]: 17 (48.6) n (%)
OR for rilzabrutinib vs. placebo, UAS7 reduction of 10 points or more [7]: 2.046
RRD (%) for rilzabrutinib vs. placebo, UAS7 reduction of 10 points or more [7]: 16.8 %
Responder, UAS7 reduction from baseline of 10 points or more [7]: 18 (51.4) n (%)
Non-responder, UAS7 reduction from baseline of 10 points or more [8]: 23 (60.5) n (%)
OR for rilzabrutinib vs. placebo, UAS7 reduction of 10 points or more [8]: 1.224
RRD (%) for rilzabrutinib vs. placebo, UAS7 reduction of 10 points or more [8]: 4.4 %
Responder, UAS7 reduction from baseline of 10 points or more [8]: 15 (39.5) n (%)
UAS7 Change from baseline Mean (SD) [9]: −9.18 (9.24)
UAS7 Change from baseline Median [9]: −7.00
UAS7 Mean (SD) [9]: 21.92 (8.82)
UAS7 Median [9]: 21.00
UAS7 Percent change from baseline Mean (SD) [9]: −27.91 (26.53) %
UAS7 Percent change from baseline Median [9]: −21.88%
UAS7 Change from baseline Mean (SD) [10]: −23.00 (NC)
UAS7 Change from baseline Median [10]: −23.00
UAS7 Mean (SD) [10]: 18.00 (NC)
UAS7 Median [10]: 18.00
UAS7 Percent change from baseline Mean (SD) [10]: −56.10 (NC) %
UAS7 Percent change from baseline Median [10]: −56.10%
Non-responder, UAS7 reduction from baseline of 10 points or more [11]: 23 (62.2) n (%)
OR for rilzabrutinib vs. placebo, UAS7 reduction of 10 points or more [11]: 1.322
RRD (%) for rilzabrutinib vs. placebo, UAS7 reduction of 10 points or more [11]: 6.0 %
Responder, UAS7 reduction from baseline of 10 points or more [11]: 14 (37.8) n (%)
Non-responder, UAS7 reduction from baseline of 10 points or more [12]: 12 (29.3) n (%)
OR for rilzabrutinib vs. placebo, UAS7 reduction of 10 points or more [12]: 3.520
RRD (%) for rilzabrutinib vs. placebo, UAS7 reduction of 10 points or more [12]: 29.4 %
Responder, UAS7 reduction from baseline of 10 points or more [12]: 29 (70.7) n (%)
UAS7 Change from baseline Mean (SD) [13]: −15.51 (9.79)
UAS7 Change from baseline Median [13]: −14.00
UAS7 Mean (SD) [13]: 14.65 (9.61)
UAS7 Median [13]: 14.00
UAS7 Percent change from baseline Mean (SD) [13]: −51.19 (29.70) %
UAS7 Percent change from baseline Median [13]: −51.09%
UAS7 Change from baseline Mean (SD) [14]: −22.94 (13.84)
UAS7 Change from baseline Median [14]: −22.50
UAS7 Mean (SD) [14]: 10.08 (10.62)
UAS7 Median [14]: 8.58
UAS7 Percent change from baseline Mean (SD) [14]: −67.07 (27.75) %
UAS7 Percent change from baseline Median [14]: −68.48%
Non-responder, UAS7 reduction from baseline of 10 points or more [15]: 11 (31.4) n (%)
OR for rilzabrutinib vs. placebo, UAS7 reduction of 10 points or more [15]: 3.855
RRD (%) for rilzabrutinib vs. placebo, UAS7 reduction of 10 points or more [15]: 31.2 %
Responder, UAS7 reduction from baseline of 10 points or more [15]: 24 (68.6) n (%)
Non-responder, UAS7 reduction from baseline of 10 points or more [16]: 19 (46.3) n (%)
OR for rilzabrutinib vs. placebo, UAS7 reduction of 10 points or more [16]: 1.238
RRD (%) for rilzabrutinib vs. placebo, UAS7 reduction of 10 points or more [16]: 5.2 %
Responder, UAS7 reduction from baseline of 10 points or more [16]: 22 (53.7) n (%)
UAS7 Change from baseline Mean (SD) [17]: −12.56 (11.55)
UAS7 Change from baseline Median [17]: −12.67
UAS7 Mean (SD) [17]: 17.22 (13.36)
UAS7 Median [17]: 16.50
UAS7 Percent change from baseline Mean (SD) [17]: −44.07 (39.75) %
UAS7 Percent change from baseline Median [17]: −40.89%
UAS7 Change from baseline Mean (SD) [18]: −25.00 (18.42)
UAS7 Change from baseline Median [18]: −29.00
UAS7 Mean (SD) [18]: 9.75 (16.94)
UAS7 Median [18]: 2.00
UAS7 Percent change from baseline Mean (SD) [18]: −71.30 (48.04) %
UAS7 Percent change from baseline Median [18]: −92.59%
Non-responder, UAS7 reduction from baseline of 10 points or more [19]: 16 (45.7) n (%)
OR for rilzabrutinib vs. placebo, UAS7 reduction of 10 points or more [19]: 1.329
RRD (%) for rilzabrutinib vs. placebo, UAS7 reduction of 10 points or more [19]: 7.0 %
Responder, UAS7 reduction from baseline of 10 points or more [19]: 19 (54.3) n (%)
Non-responder, UAS7 reduction from baseline of 10 points or more [20]: 21 (55.3) n (%)
OR for rilzabrutinib vs. placebo, UAS7 reduction of 10 points or more [20]: 0.950
RRD (%) for rilzabrutinib vs. placebo, UAS7 reduction of 10 points or more [20]: −1.3 %
Responder, UAS7 reduction from baseline of 10 points or more [20]: 17 (44.7) n (%)
UAS7 Change from baseline Mean (SD) [21]: −10.65 (9.52)
UAS7 Change from baseline Median [21]: −8.50
UAS7 Mean (SD) [21]: 20.63 (9.18)
UAS7 Median [21]: 18.63
UAS7 Percent change from baseline Mean (SD) [21]: −32.46 (26.63) %
UAS7 Percent change from baseline Median [21]: −27.86%
UAS7 Change from baseline Mean (SD) [22]: −22.00 (NC)
UAS7 Change from baseline Median [22]: −22.00
UAS7 Mean (SD) [22]: 19.00 (NC)
UAS7 Median [22]: 19.00
UAS7 Percent change from baseline Mean (SD) [22]: −53.66 (NC) %
UAS7 Percent change from baseline Median [22]: −53.66%
Non-responder, UAS7 reduction from baseline of 10 points or more [23]: 21 (56.8) n (%)
OR for rilzabrutinib vs. placebo, UAS7 reduction of 10 points or more [23]: 0.877
RRD (%) for rilzabrutinib vs. placebo, UAS7 reduction of 10 points or more [23]: −3.4 %
Responder, UAS7 reduction from baseline of 10 points or more [23]: 16 (43.2) n (%)
Non-responder, UAS7 reduction from baseline of 10 points or more [24]: 12 (29.3) n (%)
OR for rilzabrutinib vs. placebo, UAS7 reduction of 10 points or more [24]: 2.703
RRD (%) for rilzabrutinib vs. placebo, UAS7 reduction of 10 points or more [24]: 23.5 %
Responder, UAS7 reduction from baseline of 10 points or more [24]: 29 (70.7) n (%)
UAS7 Change from baseline Mean (SD) [25]: −16.74 (11.67)
UAS7 Change from baseline Median [25]: −15.17
UAS7 Mean (SD) [25]: 13.41 (10.60)
UAS7 Median [25]: 14.00
UAS7 Percent change from baseline Mean (SD) [25]: −54.42 (33.80) %
UAS7 Percent change from baseline Median [25]: −50.00%
UAS7 Change from baseline Mean (SD) [26]: −24.11 (14.81)
UAS7 Change from baseline Median [26]: −20.50
UAS7 Mean (SD) [26]: 8.92 (10.94)
UAS7 Median [26]: 5.50
UAS7 Percent change from baseline Mean (SD) [26]: −70.71 (27.72) %
UAS7 Percent change from baseline Median [26]: −73.90%
Non-responder, UAS7 reduction from baseline of 10 points or more [27]: 11 (31.4) n (%)
OR for rilzabrutinib vs. placebo, UAS7 reduction of 10 points or more [27]: 2.512
RRD (%) for rilzabrutinib vs. placebo, UAS7 reduction of 10 points or more [27]: 22.4 %
Responder, UAS7 reduction from baseline of 10 points or more [27]: 24 (68.6) n (%)
Non-responder, UAS7 reduction from baseline of 10 points or more (Week 6, 400 mg BID, ITT population): 20 (48.8) n (%)
